Earlier results on two compounds are cited in patent publication US11737985B2 (priority 2013, dated 2023).

Molecules are shown by their SMILES. Where two headings read alike, the source gives them in different places.

The conditions of series [1]: in vivo; cited from earlier work.
The conditions of series [2]: with spironolactone treatment, 12 patients, p<0.05, cited from earlier work.
The conditions of series [3]: Americas group, at four months; cited from earlier work.
The conditions of series [4]: cited from earlier work; for mean concentration in plasma: cancer patients; for Cmax / Tmax: single dose 182 mg controlled-release tablet.
For series [5] the following is noted: in vivo; cited from earlier work. The source holds these as a separate data set.

`CC(=O)S[C@@H]1CC2=CC(=O)CC[C@]2(C)[C@H]2CC[C@@]3(C)[C@@H](CC[C@@]34CCC(=O)O4)[C@H]12` [Spironolactone]: in series [1], the half-life result was “about 1.5 h” and the “time to steady state concentration” value is 7 to 10 days. For the same compound, the hypoxic index in series [2] (vs. 13.6±10.8) is recorded as 6.7±6.6 events/h. For the same compound, the AHI in series [2] (vs. 39.8±19.5) was 22.0±6.8 events/h. The “patients discontinuing the study drug due to hyperkalemia” value in series [3] is 25.2%.

One may read the Cmax as the peak of the concentration-time curve. As a reminder, the Tmax is the time from dosing to the highest level. Turning to `NNc1nncc2ccccc12` [hydralazine, 1-hydrazinophthalazine], the “mean concentration in plasma” value is 239.1 ng/mL in series [4] (fast acetylators, 182 mg daily controlled-release) and 259.2 ng/mL in series [4] (slow acetylators, 83 mg daily controlled-release). In addition, the Cmax was 208.4 ± 56.9 ng/mL in series [4] (fast acetylators, ± SD) and 470.4 ± 162.8 ng/mL in series [4] (slow acetylators). In addition, the Tmax is 2.8 ± 2.5 h in series [4] (fast acetylators) and 4.4 ± 3.1 h in series [4] (slow acetylators). Besides, in series [5], the systemic clearance result is recorded as “approximately 50 ml/kg/min”.
